In patent publication US12370143B2, “Compound or salt thereof and lipid particles” (FUJIFILM Corporation, priority 2018, dated 2025):

Tests used:
[1] = test system: Factor VII (FVII) protein; experiment: Measurement of Factor VII (FVII) protein in mouse plasma after FVII-siRNA lipid particles; format: in vivo, C57BL6/J mice; conditions: 0.1 mg/kg caudal vein, plasma 24 hours after administration, PBS group = 100%
Method: (§1) The Factor VII (FVII) protein was measured according to the method described in Nature Biotechnology (2010) 28, 172-176. C57BL6/J mice were randomly grouped (n=3). A dispersion liquid of nucleic acid lipid particles was prepared by the same method as that in <Preparation of nucleic acid lipid particles>, except that FVII-siRNA having the sequence described in Molecular Therapy (2009) 17, p. 878 was used instead of Luc-siRNA. The dispersion liquid was administered to the caudal vein of the mice at a dosage of 0.1 mg/kg. For comparison, PBS at the same volume was administered to the caudal vein of the mice. Twenty four hours after the administration, blood was collected from the caudal vena cava, thereby obtaining plasma. The amount of FVII protein was quantified using the obtained plasma and a Biophen FVII assay kit (Aniara).
The FVII amount in the plasma sample of each individual in the PBS administration group was regarded as 100%, and the ratio of the FVII amount in the plasma sample of each individual to 100% was adopted as a measurement value.

[2] = Encapsulation rate of siRNA in nucleic acid lipid particles (Luc2-siRNA); format: physicochemical; conditions: compound/DSPC/cholesterol/DMG-PEG2000 50/10/38.5/1.5
How it was run: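 Encapsulation rate was calculated as (total − outer-phase siRNA)/total ×100. Total siRNA was quantified spectrophotometrically after lipid-dissolving ethanol precipitation, and unencapsulated siRNA by RiboGreen in TE (ex 485/em 535 nm). The particles were test lipid/DSPC/cholesterol/DMG-PEG2000 at 50/10/38.5/1.5, formed by microfluidic mixing with Luc2-siRNA at pH 4 and dialyzed against PBS.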

[3] = Particle size of nucleic acid lipid particles (FVII-siRNA); format: physicochemical
Method: The compounds described in Table 2, L-α-distearoylphosphatidylcholine (trade name: COATSOME® MC-8080; NOF corporation), cholesterol (trade name: Choesterol HP; NIPPON FINE CHEMICAL CO., LTD.), and 1,2-dimyristoyl-rac-glycero-3-(methylpolyoxyethylene 2000) (hereinafter, called DMG-PEG2000) (trade name: SUNBRIGHT® GM-020; NOF corporation) were dissolved in ethanol at a molar ratio of 50/10/38.5/1.5 such that the total lipid concentration became 20 mmol/L, thereby obtaining an oil phase.
An aqueous nucleic acid solution obtained by dissolving 5 mg of Luc2-siRNA having the sequence described in Biomacromolecules (2013) 14, p. 3905 in 1 mL of sterile water was diluted with 10 mmol/L acetate buffer having a pH 4 such that the nucleic acid concentration became 19.7 μmol/L, thereby obtaining a water phase. Then, the water phase and the oil phase were mixed together by a micromixer (see JP5288254B) using a syringe pump such that the volume ratio of water phase:oil phase became 3:1 (final ratio of siRNA/lipid=339 (mol/mol)), and the mixed solution was diluted 2× with PBS, thereby obtaining a dispersion liquid of nucleic acid lipid particles. The dispersion liquid was dialyzed (Slide-A-Lyzer G2, MWCO: 10 kD, Thermo Fisher Scientific) using a phosphate buffered saline such that ethanol was removed, thereby obtaining nucleic acid lipid particles.
The particle size of the nucleic acid lipid particles was measured by the same method as that in <Preparation of lipid particles>.
as §1

[4] = test system: DMS273 cells constantly expressing Luc; experiment: Target reporter protein (Luc) knockdown in cell, reporter protein assay; format: cell-based; conditions: Homo sapiens, DMS-273; Luc2-siRNA lipid particles using the compound; siRNA 0.1 to 100 nmol/L; concentration at which Luc expression is knocked down to 50%; read-out: IC50
How it was run: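 Nucleic acid lipid particles added at final 0.1 to 100 nmol/L to DMS273 human SCLC cells stably expressing Luc2, 24 hr exposure then 24 hr further culture after medium change. Luc quantified by Steady Glo luminescence after viable cell count; knockdown efficiency calculated and IC50 taken as concentration giving 50% Luc reduction.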

[5] = Nucleic acid encapsulation rate of nucleic acid lipid particles (FVII-siRNA); format: physicochemical
Method: A 3 mol/L aqueous sodium acetate solution (30 μL) and 9 μL of glycogen were added to 60 μL of the lipid particles retaining nucleic acids, and then 1.5 mL of ethanol was added thereto such that only the nucleic acids were precipitated while the lipid was dissolved. Then, the supernatant was removed by centrifugation. After the precipitates were air-dried for 15 minutes or longer, water was added thereto such that the precipitates were redissolved, and the concentration thereof was measured using Nanodrop NF1000 (Thermo Fisher Scientific), thereby quantifying the total nucleic acid concentration.
The nucleic acid concentration was quantified using a Quant-iT RiboGreen RNA Assay Kit (Thermo Fisher Scientific) according to the protocol. First, a 20×TE buffer included in the above kit was diluted with water, thereby obtaining a 1×TE buffer. TE represents Tris/EDTA (ethylenediaminetetraacetic acid). In order to quantify only the nucleic acid in the outer water phase, the dispersion liquid of lipid particles retaining nucleic acids was diluted 10,000× with the 1×TE buffer.
The 10,000× diluted dispersion liquid of lipid particles (100 μL) was put in a 96-well plate, then 100 μL of a RiboGreen reagent (reagent included in the Quanti-iT Ribogreen RNA Assay Kit described above) diluted 2000× with the 1×TE buffer was added to a sample, and fluorescence (excitation wavelength: 485 nm, fluorescence wavelength: 535 nm) was measured using a plate reader Infinit EF200 (TECAN), thereby quantifying the nucleic acid concentration in the outer water phase.
By using the total nucleic acid concentration obtained through the above steps and the quantified nucleic acid concentration in the outer water phase, the nucleic acid encapsulation rate of the nucleic acid lipid particles was calculated according to the following Equation. Nucleic acid encapsulation rate (%)=(total nucleic acid concentration−nucleic acid concentration in outer water phase)/total nucleic acid concentration×100 The results are shown in Table 2.
as §1

[6] = Particle size of nucleic acid lipid particles (Luc2-siRNA); format: physicochemical; conditions: compound/DSPC/cholesterol/DMG-PEG2000 50/10/38.5/1.5
How it was run: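 Particle size was read by ELS-Z2 light scattering on nucleic acid lipid particles after dialysis against PBS. These were made by micromixing Luc2-siRNA (19.7 μmol/L, pH 4 acetate) with ethanolic lipids (test lipid/DSPC/cholesterol/DMG-PEG2000 50/10/38.5/1.5, 20 mmol/L) at 3:1 water:oil, siRNA/lipid 339 mol/mol.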

SMILES	Relative amount of FVII protein (%) [1] [%]	Nucleic acid encapsulation rate [2] [%]	Particle size (nm) [3] [nm]	IC50 [4] [nM]	Nucleic acid encapsulation rate [5] [%]	Particle size (nm) [6] [nm]
CCCCC/C=C\C/C=C\CCCCCCCCC(CCCCCCCC/C=C\C/C=C\CCCCC)OC(=O)OCCN(C)CCN(CC)CC [Example 23, 2-((2-(Diethylamino)ethyl)(methyl)amino)ethyl((6Z,9Z,28Z,31Z)-heptatriaconta-6,9,28,31-tetraen-19-yl)carbonate]	39	85	75.4	39	57	69.2
CCCCC/C=C\C/C=C\CCCCCCCCC(CCCCCCCC/C=C\C/C=C\CCCCC)OC(=O)OCCN(CC)CCN(C)C [Example 24, 2-((2-(Dimethylamino)ethyl)(ethyl)amino)ethyl((6Z,9Z,28Z,31Z)-heptatriaconta-6,9,28,31-tetraen-19-yl)carbonate]	24	88	66.2	41	67	62.0
CCCCC/C=C\C/C=C\CCCCCCCCC(CCCCCCCC/C=C\C/C=C\CCCCC)OC(=O)OCCN(CC)CCN(CC)CC [Example 30, 2-((2-(Diethylamino)ethyl)(ethyl)amino)ethyl((6Z,9Z,28Z,31Z)-heptatriaconta-6,9,28,31-tetraen-19-yl)carbonate]	5	78	73.6	24	88	69.8
CCCCC/C=C\C/C=C\CCCCCCCCC(CCCCCCCC/C=C\C/C=C\CCCCC)OC(=O)OCCN(CCC)CCN(C)C [Example 31, 2-((2-(Dimethylamino)ethyl)(propyl)amino)ethyl((6Z,9Z,28Z,31Z)-heptatriaconta-6,9,28,31-tetraen-19-yl)carbonate]	14	78	73.5	38	80	67.9
CCCCC/C=C\C/C=C\CCCCCCCCC(CCCCCCCC/C=C\C/C=C\CCCCC)OC(=O)OCCN(CCCCC)CCN(C)C [Example 40, 2-((2-(Dimethylamino)ethyl)(pentyl)amino)ethyl((6Z,9Z,28Z,31Z)-heptatriaconta-6,9,28,31-tetraen-19-yl)carbonate]	3	75	66.6	15	75	73.7
CCCCCCCC/C=C\CCCCCCCC(=O)OCCCCCCC(CCCCCCOC(=O)CCCCCCC/C=C\CCCCCCCC)OC(=O)OCCN(CCCCCC)CCN(C)C [Example 43]	11	78	75.3	19	87	74.5
CCCCC/C=C\C/C=C\CCCCCCCC(=O)OCCCCCCC(CCCCCCOC(=O)CCCCCCC/C=C\C/C=C\CCCCC)OC(=O)OCCN(CC)CCN(CC)CC [Example 45, 7-(((2-((2-(Diethylamino)ethyl)(ethyl)amino)ethoxy)carbonyl)oxy)tridecane-1,13-diyl(9Z,9′Z,12Z,12′Z)-bis(octadeca-9,12-dienoate)]	16	76	71.5	22	79	71.7
CCCCCC/C=C\CCCCCCCC(=O)OCCCCCCC(CCCCCCOC(=O)CCCCCCC/C=C\CCCCCC)OC(=O)OCCN(CC)CCN(CC)CC [Example 46, 7-(((2-((2-(Diethylamino)ethyl)(ethyl)amino)ethoxy)carbonyl)oxy)tridecane-1,13-diyl(9Z,9′Z)-bis(hexadec-9-enoate)]	18	80	68.4	17	84	71
CCCCCCCC(=O)OCCN(CCOC(=O)OC(CCCCCC)CCCCCCCCC(=O)OCCC(CCCCC)CCCCC)CCN(CC)CC (centres unmarked) [Example 125, 3-Pentyloctyl 3-ethyl-12-hexyl-6-(2-(octanoyloxy)ethyl)-10-oxo-9,11-dioxa-3,6-diazahenicosan-21-oate]	5	76	77.8		80	73.8
CCCCCCCCC(=O)OCCN(CCOC(=O)OC(CCCCCC)CCCCCCCCC(=O)OCCC(CCCCC)CCCCC)CCN(CC)CC (centres unmarked) [Example 126, 3-Pentyloctyl 3-ethyl-12-hexyl-6-(2-(nonanoyloxy)ethyl)-10-oxo-9,11-dioxa-3,6-diazahenicosan-21-oate]	9	75	74.2		85	66.8
CCCCCCCCC(=O)OCCN(CCOC(=O)OC(CCCCCC)CCCCCCCCC(=O)OCC(CCCCC)CCCCC)CCN(CC)CC (centres unmarked) [Example 130, 2-Pentylheptyl 3-ethyl-12-hexyl-6-(2-(nonanoyloxy)ethyl)-10-oxo-9,11-dioxa-3,6-diazahenicosan-21-oate]	9	66	74.1		68	64.9
CCCCCCCC(CCCCCCC)COC(=O)CCCCCCCCC(CCCCCC)OC(=O)OCCN(CCN(CC)CC)C(C)C (centres unmarked) [Example 133, 2-Heptylnonyl 3-ethyl-12-hexyl-6-isopropyl-10-oxo-9,11-dioxa-3,6-diazahenicosan-21-oate]	16	78	75.8		78	75.8
